Key:
[1] = system: Table apple, type Zabergäu-Renette (C2); assay: Greenhouse test, cut apple branches C2 dipped in test solution, bud development stage; type: in vivo, Malus domestica; set-up: key to Bud development stage, apple branches C2: Stage 0: Buds unchanged; Stage 1: Buds slightly swollen, first green tips visible; Stage 2: strongly swollen, green buds; Stage 3: Buds before breaking open, leaf or flower root already visible; Stage 4: Flower buds fully developed, but still closed, white petals already visible. In the case of the grapevine, stage 4 was the unfolding of the first leaves; Stage 5: Flowers fully open or, in the case of grapevine, unfolding of the flower roots (“Gescheine”) on the fully leafed sprouts; conditions: for Dormancy-breaking effect according to the definition, apple C2: stage 4 reached or exceeded after 36 days vs negative control
Description: Greenhouse tests were conducted using cut fruit tree branches placed in water jars and maintained under controlled conditions with temperature regulation at approximately 22° C. and natural lighting. C2: Table Apple, Type […] Table apple: Malus domestica type […] first developed in 1885 as a chance seedling in Hausen a.d. Zaber/Baden-Württemberg and initially grown as 'Hausener Graue […]'. No defined storage type; requires heavy soils (loam). Tree growth initially strong with oblique upright leading branches, later medium with flat branches. Crown broad and flat-spherical with flat fruiting wood. Leaves large, broad oval and with clearly separated tip. Triploid type with late and long-lasting flowering. Yield starting early, medium high and somewhat alternate. […] The test solutions were prepared directly, i.e. without intermediate preparation of a concentrate. For each of the test substances A-1 to A-13, an aqueous solution of 0.15 mol of the test substance and 0.15 g BreakThru® OE-446 was prepared and filled up to a total of 500 g with water. Of bis-cyanamides A-14 and A-15, 0.075 mol each was filled up to 500 g in an analogous manner. These test solutions (in combination with the above 4 species/types Cx) were given the test numbers Cx-A1 to Cx-A15. […] This was done with the following evaluation scale: • Stage 0: […] Flower buds fully developed, but still closed, white petals already visible. […] Flowers fully open or, in the case of grapevine, unfolding of the flower roots (“[…]”) on the fully leafed sprouts.

[2] = system: Table cherry, type Burlat (C3); assay: Greenhouse test, cut cherry branches C3 dipped in test solution, bud development stage; type: in vivo, Prunus avium; set-up: key to Bud development stage, cherry branches C3: Stage 0: Buds unchanged; Stage 1: Buds slightly swollen, first green tips visible; Stage 2: strongly swollen, green buds; Stage 3: Buds before breaking open, leaf or flower root already visible; Stage 4: Flower buds fully developed, but still closed, white petals already visible. In the case of the grapevine, stage 4 was the unfolding of the first leaves; Stage 5: Flowers fully open or, in the case of grapevine, unfolding of the flower roots (“Gescheine”) on the fully leafed sprouts
Description: Greenhouse tests were conducted using cut fruit tree branches placed in water jars and maintained under controlled conditions with temperature regulation at approximately 22° C. and natural lighting. C3: Table Cherry, Type Burlat Table cherry: Prunus avium type Bigarreau Burlat or […] is a strong-growing somewhat sparse growing sweet cherry tree with horizontal side sprouts. The type has been known since 1930 and is one of the most important types in commercial cultivation. […] Medium but regular yields identify the type as a secondary type for early and dry areas. […] The test solutions were prepared directly, i.e. without intermediate preparation of a concentrate. For each of the test substances A-1 to A-13, an aqueous solution of 0.15 mol of the test substance and 0.15 g BreakThru® OE-446 was prepared and filled up to a total of 500 g with water. Of bis-cyanamides A-14 and A-15, 0.075 mol each was filled up to 500 g in an analogous manner. These test solutions (in combination with the above 4 species/types Cx) were given the test numbers Cx-A1 to Cx-A15. […] This was done with the following evaluation scale: • Stage 0: […] Flower buds fully developed, but still closed, white petals already visible. […] Flowers fully open or, in the case of grapevine, unfolding of the flower roots (“[…]”) on the fully leafed sprouts.

[3] = system: Grape, type Pinot Noir (C4); assay: Greenhouse test, cut wine sprouts C4 dipped in test solution, bud development stage; type: in vivo, Vitis vinifera subsp. vinifera; set-up: key to Bud development stage, wine sprouts C4: Stage 0: Buds unchanged; Stage 1: Buds slightly swollen, first green tips visible; Stage 2: strongly swollen, green buds; Stage 3: Buds before breaking open, leaf or flower root already visible; Stage 4: Flower buds fully developed, but still closed, white petals already visible. In the case of the grapevine, stage 4 was the unfolding of the first leaves; Stage 5: Flowers fully open or, in the case of grapevine, unfolding of the flower roots (“Gescheine”) on the fully leafed sprouts; conditions: for Dormancy-breaking effect according to the definition, wine C4: stage 4 reached or exceeded after 36 days vs negative control
Description: Greenhouse tests were conducted using cut fruit tree branches placed in water jars and maintained under controlled conditions with temperature regulation at approximately 22° C. and natural lighting. C4: Grape, Type Pinot Noir Grape: Vitis vinifera subsp. vinifera type Pinot Noir is an important and high quality red wine type that has existed for possibly 2000 years. It is cultivated all over the world because the type produces high quality red wines and has sufficient winter frost resistance. The type requires early and good areas with deep, warm, medium-heavy and fertile soils with good water supply. Pinot Noir produces regular, medium-high to high yields. However, there are a large number of clones that differ in yield, berry size and looseness. […] The test solutions were prepared directly, i.e. without intermediate preparation of a concentrate. For each of the test substances A-1 to A-13, an aqueous solution of 0.15 mol of the test substance and 0.15 g BreakThru® OE-446 was prepared and filled up to a total of 500 g with water. Of bis-cyanamides A-14 and A-15, 0.075 mol each was filled up to 500 g in an analogous manner. These test solutions (in combination with the above 4 species/types Cx) were given the test numbers Cx-A1 to Cx-A15. […] This was done with the following evaluation scale: • Stage 0: […] Flower buds fully developed, but still closed, white petals already visible. […] Flowers fully open or, in the case of grapevine, unfolding of the flower roots (“[…]”) on the fully leafed sprouts.

[4] = system: Table apple, type Boiken apple (C1); assay: Greenhouse test, cut apple branches C1 dipped in test solution, bud development stage; type: in vivo, Malus domestica; set-up: key to Bud development stage, apple branches C1: Stage 0: Buds unchanged; Stage 1: Buds slightly swollen, first green tips visible; Stage 2: strongly swollen, green buds; Stage 3: Buds before breaking open, leaf or flower root already visible; Stage 4: Flower buds fully developed, but still closed, white petals already visible. In the case of the grapevine, stage 4 was the unfolding of the first leaves; Stage 5: Flowers fully open or, in the case of grapevine, unfolding of the flower roots (“Gescheine”) on the fully leafed sprouts; conditions: for Good to very good dormancy-breaking effect, apple C1: stage 4 reached or exceeded after 27 days vs negative control; for Dormancy-breaking effect according to the definition, apple C1: stage 4 reached or exceeded after 36 days vs negative control
Description: Greenhouse tests were conducted using cut fruit tree branches placed in water jars and maintained under controlled conditions with temperature regulation at approximately 22° C. and natural lighting. C1: Table Apple, Type Boiken Apple Table apple: Malus domestica type Boiken first described in 1828 in Bremen after Deichvogt Boiken. Apple type for rough locations and for almost every soil suitable scattered fruit type, whereby heavy soils and not too warm locations are required. Tree growth initially strong, later medium. Older crowns become broadly spherical and are loosely branched. Flowering starting medium-late and long lasting, petals large with little pink. Yield starting late (October) and irregular; with long shelf life and pressure resistance. […] The test solutions were prepared directly, i.e. without intermediate preparation of a concentrate. For each of the test substances A-1 to A-13, an aqueous solution of 0.15 mol of the test substance and 0.15 g BreakThru® OE-446 was prepared and filled up to a total of 500 g with water. Of bis-cyanamides A-14 and A-15, 0.075 mol each was filled up to 500 g in an analogous manner. These test solutions (in combination with the above 4 species/types Cx) were given the test numbers Cx-A1 to Cx-A15. […] This was done with the following evaluation scale: • Stage 0: […] Flower buds fully developed, but still closed, white petals already visible. […] Flowers fully open or, in the case of grapevine, unfolding of the flower roots (“[…]”) on the fully leafed sprouts.

[5] = T1 (14 d), 0.15 mol (A-14, A-15: 0.075 mol) per 500 g solution
[6] = stage 4 reached or exceeded after 27 days vs negative control

Row | SMILES | Bud development stage, apple branches C2 [1, 5] | Bud development stage, apple branches C2 ([1]; T2 (16 d)) | Bud development stage, apple branches C2 ([1]; T3 (21 d)) | Bud development stage, apple branches C2 ([1]; T4 (27 d)) | Bud development stage, apple branches C2 ([1]; T5 (36 d)) | Bud development stage, apple branches C2 ([1]; T6 (56 d)) | Bud development stage, cherry branches C3 [2, 5] | Bud development stage, cherry branches C3 ([2]; T2 (16 d)) | Bud development stage, cherry branches C3 ([2]; T3 (21 d)) | Bud development stage, cherry branches C3 ([2]; T4 (27 d)) | Bud development stage, cherry branches C3 ([2]; T5 (36 d)) | Bud development stage, cherry branches C3 ([2]; T6 (56 d)) | Bud development stage, wine sprouts C4 [3, 5] | Bud development stage, wine sprouts C4 ([3]; T2 (16 d)) | Bud development stage, wine sprouts C4 ([3]; T3 (21 d)) | Bud development stage, wine sprouts C4 ([3]; T4 (27 d)) | Bud development stage, wine sprouts C4 ([3]; T5 (36 d)) | Bud development stage, wine sprouts C4 ([3]; T6 (56 d)) | Bud development stage, apple branches C1 [4, 5] | Bud development stage, apple branches C1 ([4]; T2 (16 d)) | further results
1 | CCCC(=O)NC#N.[Na] [Example A-6, Sodium butyryl cyanamide] | 0 | 0 | 1 | 2 | 5 | 5 | 1 | 1 | 3 | 5 | 5 | 5 | 0 | 0 | 0 | 1 | 2 | 5 | 2 | 3 | Dormancy-breaking effect according to the definition, apple C2 [1]: dormancy-breaking effect; Dormancy-breaking effect according to the definition, cherry C3 [2, 6]: dormancy-breaking effect; Bud development stage, apple branches C1 ([4]; T3 (21 d)): 4; Bud development stage, apple branches C1 ([4]; T4 (27 d)): 5; Bud development stage, apple branches C1 ([4]; T5 (36 d)): 5; Bud development stage, apple branches C1 ([4]; T6 (56 d)): 5; Good to very good dormancy-breaking effect, apple C1 [4]: good to very good dormancy-breaking effect; Dormancy-breaking effect according to the definition, apple C1 [4]: dormancy-breaking effect
2 | CC(C)(C)C(=O)NC#N.[Na] [Example A-8, Sodium pivaloyl cyanamide] | 0 | 0 | 0 | 1 | 2 | 4 | 0 | 0 | 1 | 2 | 4 | 5 | 0 | 0 | 0 | 1 | 4 | 5 | 0 | 0 | Dormancy-breaking effect according to the definition, wine C4 [3]: dormancy-breaking effect; Bud development stage, apple branches C1 ([4]; T3 (21 d)): 2; Bud development stage, apple branches C1 ([4]; T4 (27 d)): 4; Bud development stage, apple branches C1 ([4]; T5 (36 d)): 4; Bud development stage, apple branches C1 ([4]; T6 (56 d)): 4; Good to very good dormancy-breaking effect, apple C1 [4]: good to very good dormancy-breaking effect; Dormancy-breaking effect according to the definition, apple C1 [4]: dormancy-breaking effect
3 | CCCCCC(=O)NC#N.[Na] [Example A-9, Sodium hexanoyl cyanamide] | 0 | 1 | 4 | 5 | 5 | 5 | 0 | 1 | 2 | 3 | 5 | 5 | 0 | 0 | 0 | 2 | 5 | 5 | 0 | 1 | Good to very good dormancy-breaking effect, apple C2 [1, 6]: good to very good dormancy-breaking effect; Dormancy-breaking effect according to the definition, apple C2 [1]: dormancy-breaking effect; Dormancy-breaking effect according to the definition, wine C4 [3]: dormancy-breaking effect; Bud development stage, apple branches C1 ([4]; T3 (21 d)): 1; Bud development stage, apple branches C1 ([4]; T4 (27 d)): 2; Bud development stage, apple branches C1 ([4]; T5 (36 d)): 2; Bud development stage, apple branches C1 ([4]; T6 (56 d)): 3

Source: patent publication US20220400680A1, “USE OF ACYLCYANAMIDES OR SALTS THEREOF FOR REGULATING PLANT GROWTH” (Alzchem Trostberg GmbH, priority 2019, published 2022)
